Measured values published in patent US20250130239A1, “PROTEIN DEGRADER” (University of Dundee, priority 2021, published 2025).
pEC50: −log10 of the molar value. Where two headings read alike, the source gives them in different places.

How the values were obtained:
[1] = target: wild-type Brd4^BD2 (Homo sapiens, UniProt O60885); conditions: cited from earlier work
[2] = mice, values obtained from ref., cited from earlier work
[3] = system: MV-4-11 cells; assay: CellTiter-Glo cell viability assay, MV-4-11; type: cell-based, human; conditions: 24 h
Procedure: Cell Viability Assay. MV-4-11 cells were plated at a density of 2×10^4 cell per well of a 96 well white-bottom plate, and left to grow overnight in 50 μl of IMDM (Invitrogen, arlsebad, CA, USA) supplemented with 10% (v/v) Fetal bovine serum (FBS) (Thermo Fisher, Waltham, MA, USA) and 1% (v/v) penicillin/streptomycin (pen/strep) (#15140122, Thermo Fisher, Waltham, MA, USA) at 37° C., 5% CO2, and 95% humidity. […] These cells were then left to incubate at 37° C., 5% CO2, and 95% humidity for one day prior to undergoing spectrophotometric analysis. 22RV1 cells were plated at a density of 2×10^4 cell per well of a 96 well white-bottom plate, and left to grow overnight in 100 μL of RPMI-1640 (Invitrogen, Carlsebad, CA, USA) supplemented with 10% (v/v) fetal bovine serum (FBS) (Thermo Fisher, Waltham, MA, USA) and 1% (v/v) penicillin/streptomycin (pen/strep) (#15140122, Thermo Fisher, Waltham, MA, USA) at 37° C., 5% CO2, and 95% humidity. […] Plates were subjected to 2 mins on an orbital shaker to encourage lysis and left for a further 5 mins to reach peak luminescence. Luminescence was then recorded on a BMG Labtech PHERAstar luminescence plate reader with recommended settings. Data extracted from this analysis was analysed with Graphpad Prism (v. 8.2.0, GraphPad) and normalized to the DMSO vehicle control. […]

[4] = system: Brd2, Brd3 and Brd4; assay: First generation screen at 1 μM, 6 h: BET protein levels (western blot); type: cell-based, human
Procedure: Western Blotting. All cells were harvested on ice with RIPA lysis, and extraction buffer (ThermoFisher Scientific, 89901) supplemented with protease inhibitor cocktail (Merck, 11697498001) and Benzonase® Nuclease (Sigma, E1014) before being store at −20° C. prior to use. Total protein quantity was determined using the BCA protein assay (#23225, Pierce, Rockford, Illinois). Protein concentration was determined using the BCA assay (ThermoFisher Scientific, 23225). Samples were then prepared and loaded onto NuPAGE™ 4-12% Bis-Tris Midi gels (ThermoFisher Scientific, WG1403A), followed by the transfer of the proteins onto nitrocellulose membranes (EMD Millipore). […] All western blots were analysed for band intensities using Image Lab from Bio-Rad (LI-COR, Biosciences). The data extracted from these blots were then plotted and analysed using Prism (v. 8.2.0, GraphPad).
With this initial library in hand, we set out to evaluate the activity and selectivity of our I-BET-based B&H-PROTACs by treating our heterozygous BromoTag-Brd2 HEK293 cells with 1 μM of compounds 15-17 or 1 μM of control compounds MZP-15 (14), MZ1 (1) and cis-MZ1 for 6 h, which is sufficient time to achieve effective MZ1-induced BET protein degradation (FIG. 4A). Cells were harvested, and the subsequent lysate was analysed via western blot using antibodies against BET proteins; Brd2, Brd3 and Brd4 (FIG. 4A).

[5] = system: BRD2 in Bromotag-BRD2 CRISPR knock-in HEK293 cells; assay: TMT labeling mass spectrometry proteomics, tagged target; type: cell-based, human; conditions: 1 μM, 2 h; >6,621 proteins quantified
Procedure: (§1) Sample processing, TMT labelling and fractionation. CRISPR modified BromoTag-Brd2 HEK293 cells were seeded 5×10^6 cells on a […] 24 h before treatment. Cells were treated with either DMSO, 1 μM AGB1 or 1 μM cis-AGB1. 2 h post-treatment, the cells were washed twice with PBS. Cells were lysed in 150 μL of 100 mM TEAB, 5% (w/v) SDS. The lysate was sonicated for 10 s and then centrifuged at 15,000 g for 5 min with the supernatant collected post-centrifugation. Samples were then quantified using a micro-BCA protein assay kit (Thermo Fisher Scientific); 300 μg of each sample were then reduced, alkylated and then digested using Strap mini protocol (Protifi) protocol as described by the manufacturer (protifi) with some modification. Samples were double digested with trypsin (1:40) first overnight then for another 6 hrs with the same ratio (1:40) in 50 mM TEAB buffer. Peptides were quantified using a quantitative fluorometric peptide assay (Thermo Fisher Scientific). The samples (90 μg each) were labelled with a TMT 10-plex Isobaric Label Reagent set (Thermo Fisher Scientific) as per the manufacturer's instructions. After labelling, samples were checked for labelling efficiency, then mixed, desalted, and dried in a speed-vac at 30° C. Samples were re-dissolved in 200 μl ammonium formate (10 mM, pH 9.5) and peptides were fractionated using High pH RP Chromatography. […]

[6] = system: BRD3, BRD4 or any other endogenous protein; assay: TMT labeling mass spectrometry proteomics, off-targets; type: cell-based, human; conditions: 1 μM, 2 h; >6,621 proteins quantified
Procedure: as §1

CC[C@@H](C(=O)OC)[C@@H]1N=C(c2ccc(Cl)cc2)c2c(sc(C)c2C)-n2c(C)nnc21 [ET-JQ1-OMe]
binding to the wild-type domain [1]: undetectable binding

Cc1ncsc1-c1ccc(CNC(=O)[C@@H]2C[C@@H](O)CN2C(=O)[C@@H](NC(=O)COCCOCCOCCNC(=O)C[C@@H]2N=C(c3ccc(Cl)cc3)c3c(sc(C)c3C)-n3c(C)nnc32)C(C)(C)C)cc1 [MZ1 (1)]
T1/2 ([2]; IV (5 mg/kg), 5 mg/kg): 1.04 h | AUCinf ([2]; IV (5 mg/kg)): 4.51 µM·h | CL ([2]; IV (5 mg/kg)): 19.7 mL/min/kg | MRTinf ([2]; IV (5 mg/kg)): 20.4 min | Vss ([2]; IV (5 mg/kg)): 0.38 L/kg | T1/2 ([2]; IV (5 mg/kg), listed as 1, 5 mg/kg): 1.05 h | AUCinf ([2]; SC (5 mg/kg)): 3.76 µM·h | F (%) ([2]; SC (5 mg/kg)): 83% | T1/2 ([2]; SC (5 mg/kg)): 2.95 h | pEC50 [3]: ~7.70

COc1ccc2c(c1)C(c1ccc(Cl)cc1)=NC(CC(=O)NCCOCCOCCOCC(=O)N[C@H](C(=O)N1C[C@H](O)C[C@H]1C(=O)NCc1ccc(-c3scnc3C)cc1)C(C)(C)C)c1nnc(C)n1-2 (stereo partly drawn) [MZP-15 (14), (2S,4R)-1-((2S)-2-(tert-butyl)-17-(6-(4-chlorophenyl)-8-methoxy-1-methyl-4H-benzo[fj][1,2,4]triazolo[4,3-a][1,4]diazepin-4-yl)-4,16-dioxo-6,9,12-trioxa-3,15-diazaheptadecanoyl)-4-hydroxy-N-(4-(4-methylthiazol-5-yl)benzyl)pyrrolidine-2-carboxamide]
activity across all three BET family members relative to 1 [4]: significant lower activity

CC[C@@H](C(=O)OCCOCCOCCOCC(=O)N[C@H](C(=O)N1C[C@@H](O)C[C@H]1C(=O)NCc1ccc(-c2scnc2C)cc1)C(C)(C)C)[C@@H]1N=C(c2ccc(Cl)cc2)c2c(sc(C)c2C)-n2c(C)nnc21 [cis-AGB1, (S)-13-((2S,4S)-4-hydroxy-2-((4-(4-methylthiazol-5-yl)benzyl)carbamoyl)pyrrolidine-1-carbonyl)-14,14-dimethyl-11-oxo-3,6,9-trioxa-12-azapentadecyl (R)-2-((S)-4-(4-chlorophenyl)-2,3,9-trimethyl-6H-thieno[3,2-f][1,2,4]triazolo[4,3-a][1,4]diazepin-6-yl)butanoate]
BRD2 protein abundance (proteomics) [5]: No significant changes

(S)-13-((2S,4R)-4-hydroxy-2-((4-(4-methylthiazol-5-yl)benzyl)carbamoyl)pyrrolidine-1-carbonyl)-14,14-dimethyl-11-oxo-3,6,9-trioxa-12-azapentadecyl (R)-2-((S)-4-(4-chlorophenyl)-2,3,9-trimethyl-6H-thieno[3,2-f][1,2,4]triazolo[4,3-a][1,4]diazepin-6-yl)butanoate [AGB1 (46)]
depletion of BRD3, BRD4 or any other endogenous protein (proteomics) [6]: no detectable depletion | BRD2 protein abundance (proteomics) [5]: most significantly degraded
